Results reported in patent US11180494B2, “Substituted amino acids as integrin inhibitors” (Pliant Therapeutics, Inc., priority 2018, dated 2021).

Molecular target: human integrin αvβ6 (Homo sapiens (Human), UniProt P06756+P18564)
Assay: Proximity-based integrin receptor binding assay (ALPHASCREEN) for inhibitor potency
Conditions: inhibition of binding of TGF-b1 LAP to human integrin αvβ6; values given in ranges
How it was run: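 AlphaScreen: integrin, compound, TGF-b1 LAP, biotinylated anti-LAP antibody and acceptor beads incubated 2 hours, then streptavidin donor beads 30 minutes, at room temperature in 50 mM Tris-HCl pH 7.5, 0.1% BSA, 1 mM CaCl2 and MgCl2. Excitation 680 nm, emission 520-620 nm; IC50 by four-parameter logistic fit.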

human integrin αvβ6, sequence (P06756 31-992): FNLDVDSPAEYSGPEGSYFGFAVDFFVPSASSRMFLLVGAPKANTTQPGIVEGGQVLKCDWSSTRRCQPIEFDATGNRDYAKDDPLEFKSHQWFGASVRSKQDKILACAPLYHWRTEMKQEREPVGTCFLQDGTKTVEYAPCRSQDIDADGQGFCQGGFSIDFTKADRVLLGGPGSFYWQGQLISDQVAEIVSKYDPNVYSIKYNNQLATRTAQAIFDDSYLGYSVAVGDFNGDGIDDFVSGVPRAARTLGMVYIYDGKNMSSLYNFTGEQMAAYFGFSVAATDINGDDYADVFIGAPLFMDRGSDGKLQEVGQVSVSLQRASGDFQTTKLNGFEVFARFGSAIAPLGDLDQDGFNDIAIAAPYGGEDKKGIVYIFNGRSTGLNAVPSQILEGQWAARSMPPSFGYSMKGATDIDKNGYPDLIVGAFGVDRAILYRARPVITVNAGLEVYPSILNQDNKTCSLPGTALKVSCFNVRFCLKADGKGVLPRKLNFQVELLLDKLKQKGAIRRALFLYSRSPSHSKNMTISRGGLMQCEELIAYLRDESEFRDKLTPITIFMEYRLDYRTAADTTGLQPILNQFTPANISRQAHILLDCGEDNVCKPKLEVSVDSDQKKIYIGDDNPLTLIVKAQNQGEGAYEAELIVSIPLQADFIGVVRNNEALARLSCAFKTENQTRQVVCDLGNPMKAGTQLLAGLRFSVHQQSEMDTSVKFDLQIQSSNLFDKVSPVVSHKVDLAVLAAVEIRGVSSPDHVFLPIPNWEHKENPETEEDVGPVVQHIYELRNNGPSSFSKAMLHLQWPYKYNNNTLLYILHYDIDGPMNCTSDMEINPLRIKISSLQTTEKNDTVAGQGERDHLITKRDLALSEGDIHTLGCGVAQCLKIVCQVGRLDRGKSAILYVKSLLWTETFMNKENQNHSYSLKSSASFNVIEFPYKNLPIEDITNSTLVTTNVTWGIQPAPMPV
human integrin αvβ6, sequence (P18564 22-707): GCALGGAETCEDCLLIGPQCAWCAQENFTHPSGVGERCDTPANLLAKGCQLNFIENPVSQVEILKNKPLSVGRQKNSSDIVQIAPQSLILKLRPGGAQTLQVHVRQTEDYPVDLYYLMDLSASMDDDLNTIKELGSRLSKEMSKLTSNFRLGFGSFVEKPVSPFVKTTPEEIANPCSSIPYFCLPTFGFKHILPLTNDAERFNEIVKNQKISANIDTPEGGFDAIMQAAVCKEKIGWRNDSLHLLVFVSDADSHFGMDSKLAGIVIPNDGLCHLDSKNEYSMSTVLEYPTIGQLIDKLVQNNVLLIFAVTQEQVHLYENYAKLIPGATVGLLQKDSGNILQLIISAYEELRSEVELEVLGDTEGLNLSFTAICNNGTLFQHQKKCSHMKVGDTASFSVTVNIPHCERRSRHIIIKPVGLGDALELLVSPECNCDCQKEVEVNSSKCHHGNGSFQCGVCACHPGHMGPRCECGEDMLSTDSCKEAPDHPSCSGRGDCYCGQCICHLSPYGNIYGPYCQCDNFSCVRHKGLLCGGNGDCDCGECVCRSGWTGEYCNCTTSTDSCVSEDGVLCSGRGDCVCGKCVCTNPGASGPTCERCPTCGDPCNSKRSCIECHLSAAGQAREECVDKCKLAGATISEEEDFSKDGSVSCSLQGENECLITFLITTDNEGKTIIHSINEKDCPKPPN

| SMILES | IC50 [nM] |
| --- | --- |
| CC(C)(C)OC(=O)N1CC(C)(OC(=O)N[C@@H](CCO[C@H]2C[C@H](CCc3ccc4c(n3)NCCC4)C2)C(=O)O)C1 [Compound 127, N-(((1-(tert-butoxycarbonyl)-3-methylazetidin-3-yl)oxy)carbonyl)-O-(trans-3-(2-(5,6,7,8-tetrahydro-1,8-naphthyridin-2-yl)ethyl)cyclobutyl)homoserine] | < 50 |
| CC(C)COC(=O)N[C@@H](CCO[C@H]1C[C@H](CCc2ccc3c(n2)NCCC3)C1)C(=O)O [Compound 132, N-(isobutoxycarbonyl)-O-(trans-3-(2-(5,6,7,8-tetrahydro-1,8-naphthyridin-2-yl)ethyl)cyclobutyl)homoserine] | 50 to 250 |
| CC(C)(C)OC(=O)N1CC[C@H](OC(=O)N[C@@H](CCO[C@H]2C[C@H](CCc3ccc4c(n3)NCCC4)C2)C(=O)O)C1 [Compound 133, N—((((S)-1-(tert-butoxycarbonyl)pyrrolidin-3-yl)oxy)carbonyl)-O-(trans-3-(2-(5,6,7,8-tetrahydro-1,8-naphthyridin-2-yl)ethyl)cyclobutyl)homoserine] | < 50 |
| CC(=O)N1CC[C@H](OC(=O)N[C@@H](CCO[C@H]2C[C@H](CCc3ccc4c(n3)NCCC4)C2)C(=O)O)C1 [Compound 137, N—((((S)-1-acetylpyrrolidin-3-yl)oxy)carbonyl)-O-(trans-3-(2-(5,6,7,8-tetrahydro-1,8-naphthyridin-2-yl)ethyl)cyclobutyl)homoserine] | 250 to 1000 |
| CC(C)(C)OC(=O)N1CC[C@@H](OC(=O)N[C@@H](CCO[C@H]2C[C@H](CCc3ccc4c(n3)NCCC4)C2)C(=O)O)C1 [Compound 138, N—((((R)-1-(tert-butoxycarbonyl)pyrrolidin-3-yl)oxy)carbonyl)-O-(trans-3-(2-(5,6,7,8-tetrahydro-1,8-naphthyridin-2-yl)ethyl)cyclobutyl)homoserine] | 50 to 250 |
| CC(=O)N1CC[C@@H](OC(=O)N[C@@H](CCO[C@H]2C[C@H](CCc3ccc4c(n3)NCCC4)C2)C(=O)O)C1 [Compound 139, N—((((R)-1-acetylpyrrolidin-3-yl)oxy)carbonyl)-O-(trans-3-(2-(5,6,7,8-tetrahydro-1,8-naphthyridin-2-yl)ethyl)cyclobutyl)homoserine] | > 1000 |
| C[C@@H](OC(=O)N[C@@H](CCO[C@H]1C[C@H](CCc2ccc3c(n2)NCCC3)C1)C(=O)O)c1ccccc1 [Compound 140, N—(((R)-1-phenylethoxy)carbonyl)-O-(trans-3-(2-(5,6,7,8-tetrahydro-1,8-naphthyridin-2-yl)ethyl)cyclobutyl)homoserine] | 250 to 1000 |
| O=C(NC(CCO[C@H]1C[C@H](CCc2ccc3c(n2)NCCC3)C1)C(=O)O)OC1CCC1c1ccccc1 (stereo partly drawn) [Compound 142, N-((2-phenylcyclobutoxy)carbonyl)-O-(trans-3-(2-(5,6,7,8-tetrahydro-1,8-naphthyridin-2-yl)ethyl)cyclobutyl)homoserine] | 50 to 250 |
| O=C(N[C@@H](CCO[C@H]1C[C@H](CCc2ccc3c(n2)NCCC3)C1)C(=O)O)O[C@H]1C[C@@H](c2ccccc2)C1 [Compound 143, N-((cis-3-phenylcyclobutoxy)carbonyl)-O-(trans-3-(2-(5,6,7,8-tetrahydro-1,8-naphthyridin-2-yl)ethyl)cyclobutyl)homoserine] | 250 to 1000 |
| O=C(N[C@@H](CCO[C@H]1C[C@H](CCc2ccc3c(n2)NCCC3)C1)C(=O)O)O[C@@H]1CCCC[C@H]1c1ccccc1 [Compound 144, N-((((1R,2S)-2-phenylcyclohexyl)oxy)carbonyl)-O-(trans-3-(2-(5,6,7,8-tetrahydro-1,8-naphthyridin-2-yl)ethyl)cyclobutyl)homoserine] | 250 to 1000 |
| CC(C)(C)OC(=O)N1CC(OC(=O)N[C@@H](CCO[C@H]2C[C@H](CCc3ccc4c(n3)NCCC4)C2)C(=O)O)C1 [Compound 147, N-(((1-(tert-butoxycarbonyl)azetidin-3-yl)oxy)carbonyl)-O-(trans-3-(2-(5,6,7,8-tetrahydro-1,8-naphthyridin-2-yl)ethyl)cyclobutyl)homoserine] | < 50 |
| O=C(N[C@@H](CCO[C@H]1C[C@H](CCc2ccc3c(n2)NCCC3)C1)C(=O)O)O[C@H]1CC[C@H](c2ccccc2)CC1 [Compound 148, N-(((trans-4-phenylcyclohexyl)oxy)carbonyl)-O-(trans-3-(2-(5,6,7,8-tetrahydro-1,8-naphthyridin-2-yl)ethyl)cyclobutyl)homoserine] | 250 to 1000 |

More lines, now with the values ahead:

| IC50 [nM] | SMILES |
| --- | --- |
| < 50 | CC(C)N(C)C(=O)N[C@@H](CCO[C@H]1C[C@H](CCc2ccc3c(n2)NCCC3)C1)C(=O)O [Compound 120, N-(isopropyl(methyl)carbamoyl)-O-(trans-3-(2-(5,6,7,8-tetrahydro-1,8-naphthyridin-2-yl)ethyl)cyclobutyl)homoserine] |
| < 50 | CC(C)N(C(=O)N[C@@H](CCO[C@H]1C[C@H](CCc2ccc3c(n2)NCCC3)C1)C(=O)O)C(C)C [Compound 121, N-(diisopropylcarbamoyl)-O-(trans-3-(2-(5,6,7,8-tetrahydro-1,8-naphthyridin-2-yl)ethyl)cyclobutyl)homoserine] |
| 50 to 250 | CC(C)(C)CC(=O)N[C@@H](CCO[C@H]1C[C@H](CCc2ccc3c(n2)NCCC3)C1)C(=O)O [Compound 122, N-(3,3-dimethylbutanoyl)-O-(trans-3-(2-(5,6,7,8-tetrahydro-1,8-naphthyridin-2-yl)ethyl)cyclobutyl)homoserine] |
| < 50 | CC(C)CC(=O)N[C@@H](CCO[C@H]1C[C@H](CCc2ccc3c(n2)NCCC3)C1)C(=O)O [Compound 123, N-(3-methylbutanoyl)-O-(trans-3-(2-(5,6,7,8-tetrahydro-1,8-naphthyridin-2-yl)ethyl)cyclobutyl)homoserine] |
| < 50 | O=C(CC1CCC1)N[C@@H](CCO[C@H]1C[C@H](CCc2ccc3c(n2)NCCC3)C1)C(=O)O [Compound 124, N-(2-cyclobutylacetyl)-O-(trans-3-(2-(5,6,7,8-tetrahydro-1,8-naphthyridin-2-yl)ethyl)cyclobutyl)homoserine] |
| 50 to 250 | CC1(CC(=O)N[C@@H](CCO[C@H]2C[C@H](CCc3ccc4c(n3)NCCC4)C2)C(=O)O)CC1 [Compound 125, N-(2-(1-methylcyclopropyl)acetyl)-O-(trans-3-(2-(5,6,7,8-tetrahydro-1,8-naphthyridin-2-yl)ethyl)cyclobutyl)homoserine] |
| < 50 | O=C(CC1CC1)N[C@@H](CCO[C@H]1C[C@H](CCc2ccc3c(n2)NCCC3)C1)C(=O)O [Compound 126, N-(2-cyclopropylacetyl)-O-(trans-3-(2-(5,6,7,8-tetrahydro-1,8-naphthyridin-2-yl)ethyl)cyclobutyl)homoserine] |
| 50 to 250 | CC1(OC(=O)N[C@@H](CCO[C@H]2C[C@H](CCc3ccc4c(n3)NCCC4)C2)C(=O)O)CN(S(C)(=O)=O)C1 [Compound 128, N-(((3-methyl-1-(methylsulfonyl)azetidin-3-yl)oxy)carbonyl)-O-(trans-3-(2-(5,6,7,8-tetrahydro-1,8-naphthyridin-2-yl)ethyl)cyclobutyl)homoserine] |
| 50 to 250 | CC(=O)N1CC(C)(OC(=O)N[C@@H](CCO[C@H]2C[C@H](CCc3ccc4c(n3)NCCC4)C2)C(=O)O)C1 [Compound 129, N-(((1-acetyl-3-methylazetidin-3-yl)oxy)carbonyl)-O-(trans-3-(2-(5,6,7,8-tetrahydro-1,8-naphthyridin-2-yl)ethyl)cyclobutyl)homoserine] |
| 50 to 250 | CC1(OC(=O)N[C@@H](CCO[C@H]2C[C@H](CCc3ccc4c(n3)NCCC4)C2)C(=O)O)CNC1 [Compound 130, N-(((3-methylazetidin-3-yl)oxy)carbonyl)-O-(trans-3-(2-(5,6,7,8-tetrahydro-1,8-naphthyridin-2-yl)ethyl)cyclobutyl)homoserine] |
| < 50 | O=C(N[C@@H](CCO[C@H]1C[C@H](CCc2ccc3c(n2)NCCC3)C1)C(=O)O)OC1CCCCC1 [Compound 131, N-((cyclohexyloxy)carbonyl)-O-(trans-3-(2-(5,6,7,8-tetrahydro-1,8-naphthyridin-2-yl)ethyl)cyclobutyl)homoserine] |
| 50 to 250 | O=C(N[C@@H](CCO[C@H]1C[C@H](CCc2ccc3c(n2)NCCC3)C1)C(=O)O)O[C@H]1CCNC1 [Compound 134, N—((((S)-pyrrolidin-3-yl)oxy)carbonyl)-O-(trans-3-(2-(5,6,7,8-tetrahydro-1,8-naphthyridin-2-yl)ethyl)cyclobutyl)homoserine] |
| 50 to 250 | CS(=O)(=O)CCCC(=O)N[C@@H](CCO[C@H]1C[C@H](CCc2ccc3c(n2)NCCC3)C1)C(=O)O [Compound 135, N-(4-(methylsulfonyl)butanoyl)-O-(trans-3-(2-(5,6,7,8-tetrahydro-1,8-naphthyridin-2-yl)ethyl)cyclobutyl)homoserine] |
| < 50 | CS(=O)(=O)N1CC[C@H](OC(=O)N[C@@H](CCO[C@H]2C[C@H](CCc3ccc4c(n3)NCCC4)C2)C(=O)O)C1 [Compound 136, N—((((S)-1-(methylsulfonyl)pyrrolidin-3-yl)oxy)carbonyl)-O-(trans-3-(2-(5,6,7,8-tetrahydro-1,8-naphthyridin-2-yl)ethyl)cyclobutyl)homoserine] |
| < 50 | C[C@H](OC(=O)N[C@@H](CCO[C@H]1C[C@H](CCc2ccc3c(n2)NCCC3)C1)C(=O)O)c1ccccc1 [Compound 141, N—(((S)-1-phenylethoxy)carbonyl)-O-(trans-3-(2-(5,6,7,8-tetrahydro-1,8-naphthyridin-2-yl)ethyl)cyclobutyl)homoserine] |
| 50 to 250 | O=C(N[C@@H](CCO[C@H]1C[C@H](CCc2ccc3c(n2)NCCC3)C1)C(=O)O)O[C@H]1CCCC[C@@H]1c1ccccc1 [Compound 146, N-((((1S,2R)-2-phenylcyclohexyl)oxy)carbonyl)-O-(trans-3-(2-(5,6,7,8-tetrahydro-1,8-naphthyridin-2-yl)ethyl)cyclobutyl)homoserine] |
